{"source": "patent US12473304B2", "about": "“Heterocyclic PAD4 inhibitors” (BRISTOL-MYERS SQUIBB COMPANY, priority 2020, dated 2025)", "target": "human PAD4 (hPAD4) (Homo sapiens (Human), UniProt Q9UM07)", "sequence (Q9UM07 whole entry)": "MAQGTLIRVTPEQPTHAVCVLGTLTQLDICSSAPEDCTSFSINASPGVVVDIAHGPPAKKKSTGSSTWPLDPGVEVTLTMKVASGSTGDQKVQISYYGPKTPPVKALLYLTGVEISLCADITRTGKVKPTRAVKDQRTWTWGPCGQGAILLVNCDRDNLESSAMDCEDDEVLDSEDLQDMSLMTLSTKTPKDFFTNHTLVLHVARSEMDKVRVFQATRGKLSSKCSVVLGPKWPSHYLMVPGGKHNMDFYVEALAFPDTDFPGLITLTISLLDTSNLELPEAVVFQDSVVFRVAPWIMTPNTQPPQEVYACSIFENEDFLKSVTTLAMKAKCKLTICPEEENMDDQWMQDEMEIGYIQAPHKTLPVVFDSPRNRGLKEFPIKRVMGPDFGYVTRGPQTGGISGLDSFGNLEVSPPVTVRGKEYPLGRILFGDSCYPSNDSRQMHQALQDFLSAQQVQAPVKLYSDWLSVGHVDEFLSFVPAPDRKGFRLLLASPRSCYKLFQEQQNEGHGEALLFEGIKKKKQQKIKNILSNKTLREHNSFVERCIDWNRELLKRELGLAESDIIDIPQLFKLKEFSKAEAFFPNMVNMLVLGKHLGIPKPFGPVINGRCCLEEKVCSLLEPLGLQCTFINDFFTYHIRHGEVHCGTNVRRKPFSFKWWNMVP", "assay": "RFMS Human PAD4 Functional Assay 1", "assay_type": "biochemical", "settings": "RFMS assay 1; 5 nM hPAD4, 250 μM BAEE substrate, 50 μM calcium, 37° C.", "procedure,_shortened": "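Citrullination product read by RapidFire triple-quad MRM against a modified-citrulline internal standard, after TCA stop and 30 min phenyl glyoxal step at 37 °C. Reaction: 250 μM BAEE, 5 nM human PAD4, 90 min at 37 °C, pH 7.5 HEPES buffer with 50 μM calcium and 5 μM TPEN, following 30 min compound–enzyme preincubation (max 50 μM).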"}
{"smiles": "COc1cc(C(=O)N2CCC[C@@H](N)C2)cn2nc(-c3cc4cccc(C5CCN(C(=O)[C@H]6CC[C@H](O)CC6)CC5)c4n3CC3CC3)c(C)c12", "note": "[Example 408, ((R)-3-Aminopiperidin-1-yl)(2-(1-(cyclopropylmethyl)-7-(1-((1r,4r)-4-hydroxycyclohexane-1-carbonyl)piperidin-4-yl)-1H-indol-2-yl)-4-methoxy-3-methylpyrazolo[1,5-a]pyridin-6-yl)methanone]", "values": [{"measurement": "IC50", "result": 40, "unit": "nM"}]}
{"smiles": "COc1cc(C(=O)N2C[C@H](N)C[C@@H](F)C2)cn2nc(-c3cc4cccc(C5CCN(C(=O)[C@H]6CC[C@H](O)CC6)CC5)c4n3CC3CC3)c(C)c12", "note": "[Example 409, ((3R,5R)-3-Amino-5-fluoropiperidin-1-yl)(2-(1-(cyclopropylmethyl)-7-(1-((1r,4r)-4-hydroxycyclohexane-1-carbonyl)piperidin-4-yl)-1H-indol-2-yl)-4-methoxy-3-methylpyrazolo[1,5-a]pyridin-6-yl)methanone]", "values": [{"measurement": "IC50", "result": 40, "unit": "nM"}]}
{"smiles": "COc1cc(C(=O)N2CCC[C@@H](N)C2)cn2nc(-c3cc4cccc(C5CCN(C(C)=O)CC5)c4n3CC3CC3)c(C)c12", "note": "[Example 410, (R)-1-(4-(2-(6-(3-Aminopiperidine-1-carbonyl)-4-methoxy-3-methylpyrazolo[1,5-a]pyridin-2-yl)-1-(cyclopropylmethyl)-1H-indol-7-yl)piperidin-1-yl)ethan-1-one]", "values": [{"measurement": "IC50", "result": 90, "unit": "nM"}]}
{"smiles": "COc1cc(C(=O)N2C[C@H](N)C[C@@H](F)C2)cn2nc(-c3cc4cccc(C5CCN(C(C)=O)CC5)c4n3CC3CC3)c(C)c12", "note": "[Example 411, 1-(4-(2-(6-((3R,5R)-3-Amino-5-fluoropiperidine-1-carbonyl)-4-methoxy-3-methylpyrazolo[1,5-a]pyridin-2-yl)-1-(cyclopropylmethyl)-1H-indol-7-yl)piperidin-1-yl)ethan-1-one]", "values": [{"measurement": "IC50", "result": 110, "unit": "nM"}]}
{"smiles": "COc1cc(C(=O)N2CC3CCC2[C@@H]3N)cn2nc(-c3cc4cccc(C5CCN(C(C)=O)CC5)c4n3CC3CC3)c(C)c12", "note": "(stereo partly drawn) [Example 412, 1-(4-(2-(6-((7R)-7-Amino-2-azabicyclo[2.2.1]heptane-2-carbonyl)-4-methoxy-3-methylpyrazolo[1,5-a]pyridin-2-yl)-1-(cyclopropylmethyl)-1H-indol-7-yl)piperidin-1-yl)ethan-1-one]", "values": [{"measurement": "IC50", "result": 10, "unit": "nM"}]}
{"smiles": "CC(=O)N1CCC(c2cccc3cc(-c4nn5cc(C(=O)N6CCC[C@@H](N)C6)cc(F)c5c4C)n(CC4CC4)c23)CC1", "note": "[Example 413, (R)-1-(4-(2-(6-(3-Aminopiperidine-1-carbonyl)-4-fluoro-3-methylpyrazolo[1,5-a]pyridin-2-yl)-1-(cyclopropylmethyl)-1H-indol-7-yl)piperidin-1-yl)ethan-1-one]", "values": [{"measurement": "IC50", "result": 30, "unit": "nM"}]}
{"smiles": "Cc1c(-c2cc3cccc(C4CCN(C(=O)[C@H]5CC[C@H](O)CC5)CC4)c3n2CC2CC2)nn2cc(C(=O)N3C[C@H](N)C[C@@H](F)C3)cc(F)c12", "note": "[Example 414, ((3R,5R)-3-Amino-5-fluoropiperidin-1-yl)(2-(1-(cyclopropylmethyl)-7-(1-((1r,4r)-4-hydroxycyclohexane-1-carbonyl)piperidin-4-yl)-1H-indol-2-yl)-4-fluoro-3-methylpyrazolo[1,5-a]pyridin-6-yl)methanone]", "values": [{"measurement": "IC50", "result": 260, "unit": "nM"}]}
{"smiles": "Cc1c(-c2cc3cccc(C4CCN(C(=O)[C@H]5CC[C@H](O)CC5)CC4)c3n2CC2CC2)nn2cc(C(=O)N3CCC[C@@H](N)C3)cc(F)c12", "note": "[Example 415, ((R)-3-Aminopiperidin-1-yl)(2-(1-(cyclopropylmethyl)-7-(1-((1r,4r)-4-hydroxycyclohexane-1-carbonyl)piperidin-4-yl)-1H-indol-2-yl)-4-fluoro-3-methylpyrazolo[1,5-a]pyridin-6-yl)methanone]", "values": [{"measurement": "IC50", "result": 460, "unit": "nM"}]}
{"smiles": "Cc1c(-c2cc3cccc(C4CCN(C(=O)[C@H]5CC[C@@H](O)CC5)CC4)c3n2CC2CC2)nn2cc(C(=O)N3C[C@H](N)C[C@@H](F)C3)cc(F)c12", "note": "[Example 416, ((3R,5R)-3-Amino-5-fluoropiperidin-1-yl)(2-(1-(cyclopropylmethyl)-7-(1-((1s,4s)-4-hydroxycyclohexane-1-carbonyl)piperidin-4-yl)-1H-indol-2-yl)-4-fluoro-3-methylpyrazolo[1,5-a]pyridin-6-yl)methanone]", "values": [{"measurement": "IC50", "result": 560, "unit": "nM"}]}
